Experimental data as given in US20140336233A1 (priority 2011, published 2014).
Read-outs that look alike come from different tables or passages of the source.

How the values were obtained:
[1] = tested on: Phytophthora infestans; format: in vivo, Phytophthora infestans on potato plants (variety Bintje); conditions: for Efficacy (Abbott formula): Trial 1, potato, spray 24 h before inoculation, notation 5 days after contamination
[2] = tested on: Phytophthora infestans; format: in vivo, Phytophthora infestans on tomato plants (variety Rentita); conditions: Trial 3, tomato, preventive 24 h, notation 6 days after contamination
[3] = tested on: Peronospora parasitica; experiment: In vivo test against Peronospora parasitica (crucifer downy mildew); design: species or system Peronospora parasitica on cabbage plants (Eminence variety); conditions: cabbage, spray 24 h before contamination, grading 5 days
Protocol: Spirotetramat is prepared by dilution of the SC100 g/l formulation in water to obtain the desired active material concentration.
Cabbage plants (Eminence variety) in starter cups, sown on a 50/50 peat soil-pozzolana substrate and grown at 18-20° C., are treated at the cotyledon stage by spraying with the aqueous suspension described above at 500, 125 and 31 mg/l.
Plants, used as controls, are treated with an aqueous solution not containing the active material.
After 24 hours, the plants are contaminated by spraying them with an aqueous suspension of Peronospora parasitica spores (37 500 spores per ml). The spores are collected from infected plants.
The contaminated cabbage plants are incubated for 5 days at 20° C., under a humid atmosphere.
(§1) Grading is carried out 5 days after the contamination, in comparison with the control plants.

[4] = tested on: Plasmopara viticola; experiment: In vivo test against Plasmopara viticola (vine downy mildew); conditions: from 25 to 200 g a.i./ha, spray 24 h before inoculation, grading 5 days (FIG. 4)
Protocol: The treatment is done by spray application in a spray cabinet at 500 L/ha with the aqueous dilutions of spirotetramat SC100 g/l formulation from 25 to 200 g a.i./ha.
The treatment is applied on six vine plants (Cabernet sauvignon variety, 9 weeks old) 24 hours and the plants are placed in a climatic chamber at 18° C. before inoculation.
The inoculation consists on spraying the sporangia suspension calibrated at 100 000 sporangia/ml, at the lower leaf face of each plant 24 h after the treatment and the plants are then placed in a climatic chamber at 18° C. day and night with saturate humidity until the symptoms assessment.
as §1

CCOC(=O)OC1=C(c2cc(C)ccc2C)C(=O)N[C@]12CC[C@@H](OC)CC2 [spirotetramat]
Efficacy (Abbott formula) ([1]; 100 g a.i./ha): 86%
Efficacy (Abbott formula) ([1]; 1000 g a.i./ha): 99%
Efficacy compared with standards ([1]; Trial 2, potato, around 150 g a.i./ha, high disease pressure, preventive 24 h (FIG. 2)): equivalent to the best standard
Efficacy, disease controlled ([2]; 100 g a.i./ha): 95%
Efficacy, disease controlled ([2]; 200 g a.i./ha): 95%
Activity on Peronospora parasitica ([3]; 31 mg/l active ingredient): 100%
Activity on Peronospora parasitica ([3]; 125 mg/l active ingredient): 100%
Activity on Peronospora parasitica ([3]; 500 mg/l active ingredient): 100%
Activity against Plasmopara viticola vine downy mildew [4]: 100%
